Among the data in patent US8846694B2, “Pyrrolidone derivatives for use as MetAP-2 inhibitors” (Merck Patent GmbH, priority 2008, dated 2014) are IC50 values, retold here.

Molecules are shown by their SMILES. Structures can show the parent of a compound that is named as a salt.

MetAP-2, sequence (P50579 whole entry, species assumed): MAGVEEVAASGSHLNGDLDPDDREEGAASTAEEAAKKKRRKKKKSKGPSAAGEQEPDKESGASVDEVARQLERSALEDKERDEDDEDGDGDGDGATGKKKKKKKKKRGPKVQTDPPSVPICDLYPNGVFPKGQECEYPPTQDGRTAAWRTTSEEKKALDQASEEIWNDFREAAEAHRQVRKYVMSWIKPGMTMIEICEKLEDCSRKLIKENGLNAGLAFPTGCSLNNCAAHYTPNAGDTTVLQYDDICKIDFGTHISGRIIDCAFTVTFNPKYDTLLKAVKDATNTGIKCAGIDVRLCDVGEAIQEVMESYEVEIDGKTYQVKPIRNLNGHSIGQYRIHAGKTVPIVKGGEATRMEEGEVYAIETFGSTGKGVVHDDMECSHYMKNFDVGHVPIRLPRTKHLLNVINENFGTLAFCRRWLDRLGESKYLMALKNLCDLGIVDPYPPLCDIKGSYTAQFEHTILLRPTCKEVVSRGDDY

The target in this experiment is MetAP-2 (Homo sapiens, UniProt P50579). Put plainly: MetAP-2 activity measurement (coupled enzymatic reactions, substrate Met-Arg-Ser, photometric at 450 nm). In kind it is biochemical. The conditions noted are these: read-out: IC50 enzyme (Inhibition of MetAP-2). The protocol:
MetAP-2 Activity Measurement
The MetAP-2 activity is determined by coupling enzymatic reactions. The tripeptide Met-Arg-Ser (MAS) is employed as substrate. The methionine liberated is firstly converted into Metox and H2O2 by L-aminooxidase (AAO). In the second step, the peroxidase (POD) with the aid of the H2O2 catalyses the oxidation of the leukodye dianisidine to dianisidineox, the increase of which is detected photometrically at 450 nm.
MetAP-2 activity can be recorded continuously as kinetics. The reaction scheme illustrates that one mol of dianisidineox is formed per mol of methionene. The MetAP-2 enzyme activity can therefore be calculated directly as Δ absorption per time unit. […] of the MetAP-2 activity (mol of Met/time unit) is possible with the aid of the dianisidineox extinction coefficient.
The change in extinction per time unit is depicted graphically and a slope calculation is carried out in the visually linear region of the reaction.
On to `O=C(NC1CC1)c1cc(OC[C@H]2CCCN2c2ncnc3[nH]cnc23)c2ccccc2n1` [A14, N-cyclopropyl-4-[(R)-1-(9H-purin-6-yl)pyrrolidin-2-ylmethoxy]quinoline-2-carboxamide hydrochloride], for which the half-maximal inhibitory concentration (IC50) (usually the concentration that gives 50% inhibition) was in the range of 1000 to 10000 nM. Next, `CCNC(=O)CC1CCc2c(OC[C@H]3CCCN3c3ncnc4[nH]cnc34)cccc2C1=O` (stereo partly drawn) [A176, N-Ethyl-2-{1-oxo-5-[(R)-1-(9H-purin-6-yl)-pyrrolidin-2-ylmethoxy]-1,2,3,4-tetrahydro-naphthalen-2-yl}acetamide]: 10 to 1000 nM. For `COC(=O)CC[C@H](NC(=O)OCc1ccccc1)C(=O)Nc1ccc2cccc(OC[C@H]3CCCN3c3ncnc4[nH]cnc34)c2c1` [A160, Methyl (S)-4-benzyloxycarbonylamino-4-{8-[(R)-1-(9H-purin-6-yl)pyrrolidin-2-ylmethoxy]-naphthalen-2-ylcarbamoyl}butyrate] the value was more than 10000 nM; for `FC(F)(F)Oc1ccc2nccc(OC[C@H]3CCCN3c3ncnc4[nH]cnc34)c2c1` [A137, 4-[(R)-1-(9H-Purin-6-yl)pyrrolidin-2-ylmethoxy]-6-trifluoromethoxyquinoline], 10 to 1000 nM; for `c1cc(OC[C@H]2CCCN2c2ncnc3[nH]cnc23)c2cc(N3CCOCC3)ccc2c1` [A146, 6-[(R)-2-(7-Morpholin-4-ylnaphthalen-1-yl-oxymethyl)pyrrolidin-1-yl]-9H-purine], 10 to 1000 nM. As to `O[C@@H]1C[C@H](COc2cccc3ccccc23)N(c2ncnc3[nH]cnc23)C1` [A30, (3R,5R)-5-(Naphthalen-1-yloxymethyl)-1-(9H-purin-6-yl)pyrrolidin-3-ol], the IC50 is more than 10000 nM. On to `O=C1/C(=C\c2cc[nH]n2)CCc2c(OC[C@H]3CCCN3c3ncnc4[nH]cnc34)cccc21` [A83, 5-[(R)-1-(9H-Purin-6-yl)pyrrolidin-2-ylmethoxy]-2-[1-(1H-pyrazol-3-yl)meth-(Z)-yildene]-3,4-dihydro-2H-naphthaien-1-one], for which the IC50 is 10 to 1000 nM. Next, `CN(C)c1ccc2cc(S(=O)(=O)O)cc(OC[C@H]3CCCN3c3ncnc4[nH]cnc34)c2c1` [A107, 6-Dimethylamino-4-[(R)-1-(9H-purin-6-yl)-pyrrolidin-2-ylmethoxy]naphthalene-2-sulfonic acid]: 1000 to 10000 nM. Next, `NC(=O)CCC(=O)N1CCc2cccc(OC[C@H]3CCCN3c3ncnc4[nH]cnc34)c2C1` [A202, 4-Oxo-4-{8-[(R)-1-(9H-purin-6-yl)pyrrolidin-2-yl-methoxy]-3,4-dihydro-1H-isoquinolin-2-yl}-butyramide]: 1000 to 10000 nM. On to `O=CN(CCN1CCCCC1)Cc1ccc(OC[C@H]2CCCN2c2ncnc3[nH]cnc23)c2ccccc12` [A101, N-(2-Piperidin-1-ylethyl)-N-{4-[(R)-1-(9H-purin-6-yl)pyrrolidin-2-ylmethoxy]naphthalen-1-yl-methyl}formamide], for which the IC50 is 10 to 1000 nM. For `[O-][n+]1c(C(F)(F)F)cc(OC[C@H]2CCCN2c2ncnc3[nH]cnc23)c2cc(F)ccc21` [A140, 6-Fluoro-4-[(R)-1-(9H-purin-6-yl)pyrrolidin-2-yl-methoxy]-2-trifluoromethylquinoline 1-oxide] the value was 10 to 1000 nM; for `CN1CCN(c2ccc3cccc(OC[C@H]4CCCN4c4ncnc5[nH]cnc45)c3c2)CC1` [A145, 6-{(R)-2-[7-(4-Methylpiperazin-1-yl)naphthalen-1-yloxymethyl]pyrrolidin-1-yl}-9H-purine], 1000 to 10000 nM. Next, `NCCCC[C@H](NC(=O)OCc1ccccc1)C(=O)N1CCc2cccc(OC[C@H]3CCCN3c3ncnc4[nH]cnc34)c2C1` [A199, Benzyl ((S)-5-amino-1-{8-[(R)-1-(9H-purin-6-yl)-pyrrolidin-2-ylmethoxy]-3,4-dihydro-1H-isoquinolin-2-carbonyl}pentyl)carbamate]: 1000 to 10000 nM; `Cc1ccc2nc(C(F)(F)F)cc(OC[C@H]3CCCN3c3ncnc4[nH]cnc34)c2c1` [A117, 6-Methyl-4-[(R)-1-(9H-purin-6-yl)pyrrolidin-2-yl-methoxy]-2-trifluoromethylquinoline]: 10 to 1000 nM. Next, `c1ccc2c(OC[C@H]3CCCN3c3ncnc4[nH]cnc34)ccc(CNCCCN3CCOCC3)c2c1` [A95, (3-Morpholin-4-ylpropyl)-{4-[(R)-1-(9H-purin-6-yl)pyrrolidin-2-ylmethoxy]naphthalen-1-yl-methyl}amine]: 10 to 1000 nM; `CC(C)(C)OC(=O)NCCCC[C@H](NC(=O)OCc1ccccc1)C(=O)N1CCc2cccc(OC[C@H]3CCCN3c3ncnc4[nH]cnc34)c2C1` [A193, tert-Butyl ((S)-5-benzyloxycarbonylamino-6-oxo-6-{8-[(R)-1-(9H-purin-6-yl)pyrrolidin-2-yl-methoxy]-3,4-dihydro-1H-isoquinolin-2-yl}hexyl)-carbamate]: more than 10000 nM; `O=C(O)CCCCOc1ccc2cccc(OC[C@H]3CCCN3c3ncnc4[nH]cnc34)c2c1` [A196, 5-{8-[(R)-1-(9H-Purin-6-yl)pyrrolidin-2-yl-methoxy]naphthalen-2-yloxy}pentanoic acid]: more than 10000 nM. Regarding `Cn1c(C(=O)OCCc2ccc(F)cc2)c(OC[C@H]2CCCN2c2ncnc3[nH]cnc23)c2cc(F)ccc21` [A198, 2-(4-Fluorophenyl)ethyl 5-fluoro-1-methyl-3-[(R)-1-(9H-purin-6-yl)pyrrolidin-2-ylmethoxy]-1H-indole-2-carboxylate], the IC50 was more than 10000 nM. For `Clc1ccc(-n2ccc(OC[C@H]3CCCN3c3ncnc4[nH]cnc34)n2)c(Cl)c1` [A153, 6-{(R)-2-[1-(2,4-Dichlorophenyl)-1H-pyrazol-3-yloxymethyl]pyrrolidin-1-yl}-9H-purine] the value was 10 to 1000 nM; for `O=C1OCCC1CCn1cnc2c(N3CCC[C@@H]3COc3cccc4ccc(O)cc34)ncnc21` (stereo partly drawn) [A134, 3-(2-{6-[(R)-2-(7-Hydroxynaphthalen-1-yl-oxymethyl)pyrrolidin-1-yl]purin-9-yl}ethyl)-dihydrofuran-2-one], 1000 to 10000 nM; for `CC(O)CNC(=O)c1cc(OC[C@H]2CCCN2c2ncnc3[nH]cnc23)c2ccccc2n1` (stereo partly drawn) [A68, N-(2-Hydroxypropyl)-4-[(R)-1-(9H-purin-6-yl)-pyrrolidin-2-ylmethoxy]quinoline-2-carboxamide hydrochloride], 10 to 1000 nM. Next, `CN(C)C(=O)C[C@@H]1CCc2c(OC[C@H]3CCCN3c3ncnc4[nH]cnc34)cccc2C1=O` [A174, N,N-Dimethyl-2-{(S)-1-oxo-5-[(R)-1-(9H-purin-6-yl)pyrrolidin-2-ylmethoxy]-1,2,3,4-tetrahydro-naphthalen-2-yl}acetamide]: 10 to 1000 nM; `c1cc(OC[C@H]2CCCN2c2ncnc3[nH]cnc23)c2nccc(CN3CCOCC3)c2c1` [A56, 4-Morpholin-4-ylmethyl-8-[(R)-1-(9H-purin-6-yl)-pyrrolidin-2-ylmethoxy]quinoline]: 1000 to 10000 nM.

As for `N[C@@H](Cc1c[nH]cn1)C(=O)N1CCc2cccc(OC[C@H]3CCCN3c3ncnc4[nH]cnc34)c2C1` [A195, (S)-2-Amino-3-(1H-imidazol-4-yl)-1-{8-[(R)-1-(9H-purin-6-yl)pyrrolidin-2-ylmethoxy]-3,4-dihydro-1H-isoquinolin-2-yl}propan-1-one], the IC50 lay in the range of 10 to 1000 nM. Next, `CC(=O)N(CCN1CCOCC1)Cc1ccc(OC[C@H]2CCCN2c2ncnc3[nH]cnc23)c2ccccc12` [A92, N-(2-Morpholin-4-ylethyl)-N-{4-[(R)-1-(9H-purin-6-yl)pyrrolidin-2-ylmethoxy]naphthalen-1-yl-methyl}acetamide]: 10 to 1000 nM. For `CCc1nc2c(N3CCC[C@@H]3COc3ccccc3Cl)ncnc2[nH]1` [A17, 6-[(R)-2-(2-Chlorophenoxymethyl)pyrrolidin-1-yl]-8-ethyl-9H-purine HCl] the value was more than 10000 nM; for `CCOC(=O)/C=C/c1ccccc1OC[C@H]1CCCN1c1ncnc2[nH]cnc12` [A74, Ethyl (E)-3-{2-[(R)-1-(9H-purin-6-yl)pyrrolidin-2-ylmethoxy]phenyl}acrylate], 10 to 1000 nM; for `FC(F)(F)c1ccc2nccc(OC[C@H]3CCCN3c3ncnc4[nH]cnc34)c2c1` [A123, 4-[(R)-1-(9H-Purin-6-yl)pyrrolidin-2-ylmethoxy]-6-trifluoromethylquinoline], 10 to 1000 nM. As for `O=C(/C=C/c1ccccc1OC[C@H]1CCCN1c1ncnc2[nH]cnc12)NCCCO` [A79, (E)-N-(3-Hydroxypropyl)-3-{2-[(R)-1-(9H-purin-6-yl)pyrrolidin-2-ylmethoxy]phenyl}acrylamide], the IC50 was 10 to 1000 nM. For `CCCCOC(=O)c1cc(OC[C@H]2CCCN2c2ncnc3[nH]cnc23)c2cc(F)ccc2n1` [A139, Butyl 6-fluoro-4-[(R)-1-(9H-purin-6-yl)pyrrolidin-2-ylmethoxy]quinoline-2-carboxylate] the value was 10 to 1000 nM. For `Cn1ncc(Cl)c1C[C@H]1CCc2c(OC[C@H]3CCCN3c3ncnc4[nH]cnc34)cccc2C1=O` [A126, (R)-2-(4-Chloro-2-methyl-2H-pyrazol-3-yl-methyl)-5-[(R)-1-(9H-purin-6-yl)pyrrolidin-2-yl-methoxy]-3,4-dihydro-2H-naphthalen-1-one] the value was 10 to 1000 nM; for `CC(=O)N1CCN(c2ccc3cccc(OC[C@H]4CCCN4c4ncnc5[nH]cnc45)c3c2)CC1` [A116, 1-(4-{8-[(R)-1-(9H-Purin-6-yl)pyrrolidin-2-yl-methoxy]naphthalen-2-yl}piperazin-1-yl)-ethanone], 10 to 1000 nM. Next, `Cn1ccc(CN(C=O)Cc2ccc(OC[C@H]3CCCN3c3ncnc4[nH]cnc34)c3ccccc23)n1` [A102, N-(1-Methyl-1H-pyrazol-3-ylmethyl)-N-{4-[(R)-1-(9H-purin-6-yl)pyrrolidin-2-ylmethoxy]-naphthalen-1-ylmethyl}formamide]: 10 to 1000 nM.
